Measured values reported in patent US11957687B2 (REGENERON PHARMACEUTICALS, INC., priority 2019, dated 2024).

Key:
HSD17B1 = HSD17B1 (Homo sapiens (Human), UniProt P14061); assay: HSD17B1 enzymatic blocking assay; format: biochemical; details: 25 μM Estradiol, 500 μM NAD; read-out: Inhibition of HSD17B1 IC50
Outline: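 Activity followed as NADH formed on estradiol oxidation, read by NADH-Glo luminescence after 1 h detection in the dark at room temperature. Compounds preincubated with enzyme 30 min at room temperature; 0.5% DMSO and no-substrate controls. IC50 fitted from luminescence.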

[1] = Microsome stability assay, human liver microsomes; format: in vitro ADME; details: 1 μM compound, 0.5 mg/mL microsomal protein; for microsomal CLint at 1 μM / half-life at 1 μM / microsomal CLint at 1 h, 1 µM / half-life at 1 h, 1 µM: human, human liver microsomes, pooled, NADPH, 37° C.; for microsomal CLint at 1 μM / microsomal CLint at 1 h, 1 µM: read-out: Microsome Stability Human liver microsomes Cl; for half-life at 1 μM / half-life at 1 h, 1 µM: read-out: Microsome Stability Human liver microsomes T½
Outline: (§1)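 Compound at 1 μM incubated at 37° C with pooled human or mouse liver microsomes (0.5 mg/mL protein) plus NADPH regenerating system, sampled at 0–60 min; a 60-min no-NADPH incubation also included. Single replicate; LC/MS/MS disappearance from analyte/internal standard peak area ratios, without standard curve.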

HSD17B4 = HSD17B4 (Homo sapiens (Human), UniProt P51659); assay: HSD17B4 enzymatic blocking assay; format: biochemical; details: 23.46 μM Estradiol, 1500 μM NAD; read-out: Inhibition of HSD17B4 IC50
Protocol: To screen compounds of the disclosure for their ability to block HSD17B4 function, an enzymatic blocking assay was performed. For the assay, HSD17B4 activity was measured by detecting NADH formation from oxidation of Estradiol using a NADH Glo luminescence assay (Promega, #Cat. No. G9062). Compounds of the disclosure were evaluated in a dose titration assay where the compounds were titrated at 10-point dose curve using an Echo-555 liquid handling dispenser. HSD17B4 (SEQ ID NO: 4, expressed in mammalian cells) was added at a final concentration of 2.5 ng/μL in a buffer containing 50 mM Tris-HCl, pH 7.5, Pluronic F-127 0.05%, Tween20 0.01%, BSA 0.01%, into a low volume white 384-well assay plate. Compounds were incubated with the enzyme for 15 min at 20° C. The assay reaction was then initiated by addition of 23.46 μM Estradiol substrate (Sigma, catalog #E2758-250MG, CAS: 50-28-2) and 1500 μM NAD co-factor, and the reaction mixture was incubated for 45 min at 20° C. DMSO at a concentration of 0.5% was used as a negative control and a ‘no substrate’ control was used a positive control in the assay. Detection reagent was then added as per manufacturer's instructions, and the plate was subsequently incubated in the dark for 1 hour at room temperature, NADH generated was detected in the luminescence mode on the Envision Perkin Elmer plate reader. The IC50 values were determined using Dotmatics analysis software.

HSD17B2 = HSD17B2 (Homo sapiens (Human), UniProt P37059); assay: HSD17B2 enzymatic blocking assay; format: biochemical; details: 1.8 μM Estradiol, 650 μM NAD; read-out: Inhibition of HSD17B2 IC50
Outline: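 Mammalian-expressed enzyme at 2 ng/μL in 50 mM Tris-HCl pH 7.5 with detergents/BSA, preincubated 15 min at 20° C. with compound (10-point titration). Reaction with 1.8 μM estradiol and 650 μM NAD ran 45 min at 20° C.; NADH measured by NADH-Glo luminescence and IC50 derived.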

HSD17B10 = HSD17B10 (Homo sapiens (Human), UniProt Q99714); assay: HSD17B10 enzymatic blocking assay; format: biochemical; details: 25 μM Estradiol, 500 μM NAD; read-out: Inhibition of HSD17B10 IC50
Protocol: To screen compounds of the disclosure for their ability to block HSD17B10 function, an enzymatic blocking assay was performed. For the assay, HSD17B10 activity was measured by detecting NADH formation from oxidation of Estradiol using a NADH Glo luminescence assay (Promega, #Cat. No. G9062). Compounds of the disclosure were evaluated in a dose titration assay where the compounds were titrated at 10-point dose curve using an Echo-555 liquid handling dispenser. HSD17B10 (Seq. ID NO: 5, expressed in mammalian cells) was added at a final concentration of 31.25 ng/well in a buffer containing 0.2M Tris-HCl, pH 7.5, into a low volume white 384-well assay plate. Compounds were incubated with the enzyme for 30 minutes at room temperature. The assay reaction was then initiated by addition of 25 μM Estradiol substrate (Sigma, catalog #E2758-250MG, CAS: 50-28-2) and 500 μM NAD co-factor, and the reaction mixture was incubated for 3 hours at room temperature. DMSO at a concentration of 0.5% was used as a negative control and a ‘no substrate’ control was used a positive control in the assay. Detection reagent was then added as per manufacturer's instructions, and the plate was subsequently incubated in the dark for 1 hour at room temperature, NADH generated was detected in the luminescence mode on the Envision Perkin Elmer plate reader. The IC50 values were determined using Dotmatics analysis software.

[2] = Microsome stability assay, mouse liver microsomes; format: in vitro ADME; details: 1 μM compound, 0.5 mg/mL microsomal protein
Outline: as §1

HSD17B13 = HSD17B13 (Homo sapiens (Human), UniProt Q7Z5P4); assay: HSD17B13 enzymatic inhibition assay (150 nM or 50 nM HSD17B13); format: biochemical; details: 50 nM HSD17B13; read-out: Inhibition of 50 nM of HSD17B13 IC50
[3] = mouse, mouse liver microsomes, pooled, NADPH, 37° C., read-out: Microsome Stability Mouse liver microsomes Cl
[4] = mouse, mouse liver microsomes, pooled, NADPH, 37° C., read-out: Microsome Stability Mouse liver microsomes T½

Chain of HSD17B4 (P51659 other isoform, or with tags, fused parts or gaps): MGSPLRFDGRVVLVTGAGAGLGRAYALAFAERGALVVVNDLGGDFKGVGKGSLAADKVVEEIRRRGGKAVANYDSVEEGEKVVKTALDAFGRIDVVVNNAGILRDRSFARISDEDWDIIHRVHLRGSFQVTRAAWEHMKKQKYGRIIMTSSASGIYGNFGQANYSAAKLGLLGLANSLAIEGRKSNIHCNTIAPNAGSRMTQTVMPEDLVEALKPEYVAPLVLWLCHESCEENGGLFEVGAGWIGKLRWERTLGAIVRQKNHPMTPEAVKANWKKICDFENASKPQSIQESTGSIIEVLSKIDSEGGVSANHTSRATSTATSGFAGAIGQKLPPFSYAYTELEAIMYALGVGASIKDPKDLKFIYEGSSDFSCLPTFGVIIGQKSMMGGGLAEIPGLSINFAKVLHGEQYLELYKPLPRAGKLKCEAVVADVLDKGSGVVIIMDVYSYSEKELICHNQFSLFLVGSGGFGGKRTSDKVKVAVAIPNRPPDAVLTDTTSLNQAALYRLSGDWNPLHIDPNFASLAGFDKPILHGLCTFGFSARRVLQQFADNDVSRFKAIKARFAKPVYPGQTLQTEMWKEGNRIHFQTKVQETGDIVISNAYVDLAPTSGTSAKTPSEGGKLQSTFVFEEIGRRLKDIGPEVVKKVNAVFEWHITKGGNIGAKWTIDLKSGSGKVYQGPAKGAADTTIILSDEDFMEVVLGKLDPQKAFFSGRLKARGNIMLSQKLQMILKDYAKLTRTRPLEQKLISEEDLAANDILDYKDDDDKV
Chain of HSD17B1 (P14061 other isoform, or with tags, fused parts or gaps): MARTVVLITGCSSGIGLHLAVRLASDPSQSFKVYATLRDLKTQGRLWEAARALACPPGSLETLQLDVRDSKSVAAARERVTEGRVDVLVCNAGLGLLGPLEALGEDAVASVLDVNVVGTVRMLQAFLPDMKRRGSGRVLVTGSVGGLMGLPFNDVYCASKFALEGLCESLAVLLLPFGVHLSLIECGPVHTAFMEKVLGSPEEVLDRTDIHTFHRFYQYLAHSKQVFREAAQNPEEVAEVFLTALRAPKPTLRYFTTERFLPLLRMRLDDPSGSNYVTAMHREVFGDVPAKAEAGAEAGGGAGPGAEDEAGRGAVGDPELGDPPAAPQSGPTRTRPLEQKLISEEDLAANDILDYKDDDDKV
Chain of HSD17B10 (Q99714 other isoform, or with tags, fused parts or gaps): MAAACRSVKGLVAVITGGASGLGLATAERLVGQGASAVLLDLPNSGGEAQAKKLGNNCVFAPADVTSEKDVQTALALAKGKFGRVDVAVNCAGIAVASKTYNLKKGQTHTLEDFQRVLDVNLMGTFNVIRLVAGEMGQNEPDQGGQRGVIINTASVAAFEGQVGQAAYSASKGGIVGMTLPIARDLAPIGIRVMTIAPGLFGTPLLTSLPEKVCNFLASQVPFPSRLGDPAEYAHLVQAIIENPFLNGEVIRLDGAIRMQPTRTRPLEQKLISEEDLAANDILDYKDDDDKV
Chain of HSD17B13 (Q7Z5P4 other isoform, or with tags, fused parts or gaps): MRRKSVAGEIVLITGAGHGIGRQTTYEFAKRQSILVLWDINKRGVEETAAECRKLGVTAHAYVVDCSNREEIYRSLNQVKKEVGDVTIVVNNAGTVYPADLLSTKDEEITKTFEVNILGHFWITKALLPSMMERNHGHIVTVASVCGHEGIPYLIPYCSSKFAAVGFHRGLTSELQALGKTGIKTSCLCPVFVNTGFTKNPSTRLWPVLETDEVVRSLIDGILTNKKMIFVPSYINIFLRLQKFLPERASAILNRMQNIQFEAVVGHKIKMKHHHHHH
Chain of HSD17B2 (P37059 other isoform, or with tags, fused parts or gaps): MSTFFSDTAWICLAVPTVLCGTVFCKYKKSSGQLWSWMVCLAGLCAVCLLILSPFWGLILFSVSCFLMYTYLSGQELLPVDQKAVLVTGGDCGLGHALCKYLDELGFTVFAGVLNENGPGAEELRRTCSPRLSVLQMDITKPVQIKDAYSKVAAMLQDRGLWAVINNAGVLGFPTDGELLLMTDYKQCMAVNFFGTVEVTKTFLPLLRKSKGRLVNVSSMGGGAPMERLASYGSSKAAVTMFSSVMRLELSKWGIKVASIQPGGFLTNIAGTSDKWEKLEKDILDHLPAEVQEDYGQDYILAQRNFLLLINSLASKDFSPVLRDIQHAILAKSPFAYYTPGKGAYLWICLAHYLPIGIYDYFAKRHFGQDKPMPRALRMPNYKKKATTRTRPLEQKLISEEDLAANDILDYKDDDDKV

Row | Structure (SMILES) | IC50 (HSD17B1) | Microsome Stability Human liver microsomes % Remaining @60 min [1] | microsomal CLint at 1 μM [1] | half-life at 1 μM [1] | IC50 (HSD17B4) | IC50 (HSD17B2) | IC50 (HSD17B10) | Microsome Stability Mouse liver microsomes % Remaining @60 min [2] | microsomal CLint at 1 μM [2, 3] | half-life at 1 μM [2, 4] | IC50 (HSD17B13) | microsomal CLint at 1 h, 1 µM [1] | half-life at 1 h, 1 µM [1] | microsomal CLint at 1 h, 1 µM [2, 3] | half-life at 1 h, 1 µM [2, 4]
1 | O=C(NC1c2ccc(Cl)cc2Oc2cc(Cl)ccc21)c1ccc(C(F)(F)F)[nH]c1=O [Compound 50, N-(3,6-dichloro-9H-xanthen-9-yl)-2-oxo-6-(trifluoromethyl)-1,2-dihydropyridine-3-carboxamide] | 4.22 µM | 101.00% | < 9.6 µL/min/mg | > 2.42 h | > 100 µM | 5.16 µM | > 30 µM | 97.70% | < 9.6 µL/min/mg | > 2.42 h | 0.12 µM |  |  |  | 
2 | Cc1ccc2c(c1)Oc1cccc(Cl)c1C2NC(=O)c1ccc(C(F)(F)F)[nH]c1=O (centres unmarked) [Compound 190, N-(1-chloro-6-methyl-9H-xanthen-9-yl)-2-oxo-6-(trifluoromethyl)-1,2-dihydropyridine-3-carboxamide] | 3.2 µM | 0.62% |  |  | 84.5 µM | 8.71 µM | > 30 µM | 59.10% |  |  | 0.09 µM | 172 µL/min/mg | 0.135 h | 17.4 µL/min/mg | 1.33 h
3 | Cc1ccc2c(c1)Oc1cc(Cl)ccc1C2NC(=O)c1ccc(C(F)(F)F)[nH]c1=O (centres unmarked) [Compound 138, N-(3-chloro-6-methyl-9H-xanthen-9-yl)-2-oxo-6-(trifluoromethyl)-1,2-dihydropyridine-3-carboxamide] | 2.07 µM | 72.40% |  |  | > 100 µM | 16.1 µM | > 30 µM | 97.40% | < 9.6 µL/min/mg | > 2.42 h | 0.02 µM | 17.8 µL/min/mg | 1.3 h |  | 
4 | Cc1ccc2c(c1)Oc1cc(C)ccc1C2NC(=O)c1ccc(C(F)(F)F)[nH]c1=O [Compound 52, N-(3,6-dimethyl-9H-xanthen-9-yl)-2-oxo-6-(trifluoromethyl)-1,2-dihydropyridine-3-carboxamide] | 5.84 µM | 110.00% | < 9.6 µL/min/mg | > 2.42 h | > 100 µM | 8.69 µM | > 30 µM | 125.00% | < 9.6 µL/min/mg | > 2.42 h | 0.08 µM |  |  |  | 
